# From paper PMC11207073, “Protein Tyrosine Phosphatase 1B Inhibitors of Pueraria lobata Based on the Spectrum–Effect Relationship by Q-Marker Selection” (Molecules, 2024)
# Target: T1, Protein tyrosine phosphatase 1B (PTP1B) (Homo sapiens, UniProt P18031)
# T1 construct: gene PTPN1
# T1 sequence (P18031 1-435): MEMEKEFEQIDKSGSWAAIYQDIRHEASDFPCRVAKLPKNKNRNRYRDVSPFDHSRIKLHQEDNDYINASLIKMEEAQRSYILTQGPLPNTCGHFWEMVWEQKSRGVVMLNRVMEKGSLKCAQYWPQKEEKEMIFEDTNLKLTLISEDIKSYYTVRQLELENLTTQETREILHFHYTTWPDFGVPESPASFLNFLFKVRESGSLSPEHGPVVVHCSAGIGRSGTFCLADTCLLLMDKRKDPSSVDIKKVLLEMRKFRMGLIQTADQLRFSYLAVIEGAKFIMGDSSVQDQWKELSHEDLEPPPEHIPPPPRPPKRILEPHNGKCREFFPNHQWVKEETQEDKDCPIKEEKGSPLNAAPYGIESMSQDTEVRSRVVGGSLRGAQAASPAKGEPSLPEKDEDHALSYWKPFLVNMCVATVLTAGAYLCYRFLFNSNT
# Test: pNPP phosphatase assay with commercial PTP1B, absorbance at […] nm
# Format: biochemical
row,IC50 [µM],SMILES
1,38.1,"O=c1c(-c2ccc(O)cc2)coc2cc(O[C@@H]3O[C@H](CO)[C@@H](O)[C@H](O)[C@H]3O)cc(O)c12 (single isomer, unassigned) [peak 11, genistin]"
2,23.7,"COc1cc2c(=O)c(-c3ccc(O)cc3)coc2cc1O[C@@H]1O[C@H](CO)[C@@H](O)[C@H](O)[C@H]1O (single isomer, unassigned) [peak 9, glycitin]"
3,21.7,"COc1ccc(-c2coc3c([C@@H]4O[C@H](CO)[C@@H](O)[C@H](O)[C@H]4O)c(O)ccc3c2=O)cc1 (single isomer, unassigned) [peak 12, 4′-methoxypuerarin]"
